Source: patent publication US9040691B2, “Hydroxymethylaryl-substituted pyrrolotriazines as ALK1 inhibitors” (BAYER INTELLECTUAL PROPERTY GMBH, priority 2011, dated 2015)

Legend:
[1] = system: hSmad7 mRNA in BMP9-stimulated HMVEC; experiment: Smad7 target gene induction: HMVEC cell assay and TaqMan expression analysis; type: cell-based; conditions: Homo sapiens, hBMP9 stimulation, Smad7 mRNA by TaqMan
Procedure: B-2a. Smad7 Target Gene Induction: HMVEC Cell Assay and TaqMan Expression Analysis
Activation of ALK1 receptors by BMP9 induces the Smad1/5 signalling pathway and enhances expression of target genes Smad6, Smad7 and Id-1. Induction of Smad7-mRNA in BMP9-stimulated endothelial cells was determined to monitor the cellular potency of ALK1 kinase inhibitors.
Human microvascular endothelial cells (IIMVECadult, Cell Systems, St. Katharinen) were seeded in complete ENGS MV medium with all supplements (LifeLine Cell Technology) in 96 well plates with 10 000 cells per well. After 4 h incubation at 37° C. and 7.5% CO2 in a humidified incubator, medium was replaced with minimal medium (ENGS MV without supplements containing 0.02% FCS). After 16 h, test compounds or medium (controls) were added to the cultures, followed 30 min later by addition of hBMP9 (R&D Systems). Medium was removed 1 to 4 h later, plates were gently washed with phosphate-buffered saline, and cells were lysed with 150 μl per well of ice-cold RLT buffer (Qiagen).
Total cellular RNA was isolated with the Trizol® reagent protocol according to the manufacturer's specifications (Invitrogen, USA) and treated with DNAseI to remove genomic DNA contamination.
For relative quantitation of the mRNA distribution of hSmad7, total RNA from each sample was first reverse-transcribed using the ImProm-II Reverse Transcription System (Promega, USA) according to the manufacturer's protocol. The final volume was adjusted to 200 μl with water.
For relative quantitation of selected mRNA, the Applied Bioscience ABI 7900HT Sequence Detection System was used according to the manufacturer's specifications and protocols. PCR reactions were set up to quantitate hSmad7- and the housekeeping gene L32-mRNA. Forward and reverse primers and probes for hSmad7 and L32 were designed using the Applied Bioscience ABI Primer Expressim software and were synthesized by Eurogentec (Belgium). The hSmad7 forward primer sequence was: Primer 1 (SEQ ID NO 1). The hSmad7 reverse primer sequence was: Primer 2 (SEQ ID NO 2). Probe 1 (SEQ ID NO 3), labelled with FAM as the reporter dye and TAMRA as the quencher, was used as a probe for hSmad7. The L32 forward primer sequence was: Primer 3 (SEQ ID NO 4). The L32 reverse primer sequence was: Primer 4 (SEQ ID NO 5). Probe 2 (SEQ ID NO 6), labelled with FAM as the reporter dye and TAMRA as the quencher, was used as a probe for L32.
The following reagents were prepared in a total of 20 μl added per well: 1× qPCR-MasterMix (Eurogentec, Belgium) and hSmad7 forward and reverse primers each at 200 nM, 200 nM hSmad7 FAM/TAMRA-labelled probe 1 (SEQ ID NO 3), and 5 μl of template cDNA. Correspondingly, a second mix in a total of 20 μl was prepared using L32 FAM/TAMRA-labelled probe 2 (SEQ ID NO 6) and L32 forward and reverse primers added per well in parallel samples.
Thermal cycling parameters were 2 min at 50° C., followed by 10 min at 95° C., followed by 40 cycles of melting at 95° C. for 15 sec and annealing/extending at 60° C. for 1 min.
Calculation of Relative Expression:
The Ct (cycle threshold) values were calculated from the turning point of PCR product quantity curves by the ΔΔCt method (delta-delta Ct): ΔCt=CthSmad7−CtL32; relative expression=2^(15-ΔCt).
IC50 values of test compounds were calculated on basis of relative Smad7 expressions at different compound concentrations.

[2] = system: hSmad7 mRNA in BMP9-stimulated HUVEC; experiment: Smad7 target gene induction: HUVEC cell assay and TaqMan expression analysis; type: cell-based, human; conditions: Homo sapiens, 3 h, 1 ng/ml BMP9 for 3 h, Smad7 mRNA by TaqMan
Procedure: B-2b. Smad7 Target Gene Induction: HUVEC Cell Assay and TaqMan Expression Analysis
The in vitro potency of ALK1 inhibitors was tested in a cell-based assay. Bone morphogenetic protein 9 (BMP9) induces Smad7 mRNA expression in human vascular endothelial cells (HUVEC) via activation of ALK1.
1.5×10^4 passage 2 HUVECs (Lonza, Basel, Switzerland) per well were seeded in a 96-well plate in EBM-2 medium containing EGM-2 additives and growth factors (Lonza, CC-3156 and CC-4176). After 4 h, the medium was changed to EBM-2 with 0.2% fetal calf serum (FCS) and the cells were starved for 20 h in a humidified incubator at 37° C., 5% CO2. Test compounds were added at 11 different concentrations between 0 and 10 000 nM one hour prior to stimulation of the cells for 3 h with recombinant human BMP9 protein at 1 ng/ml (dissolved in 4 mM hydrochloric acid, 0.1% BSA at 10 μg/ml; R&D Systems, Minneapolis, Minn., USA, 3209BP). Medium was removed, and the cells were lysed in 100 μl RLT buffer (Qiagen, Hilden, Germany). RNA was isolated using the Qiagen RNeasy 96 Kit (order-No. 74182) according to manufacturer's instructions and eluted from the columns with 65 μl RNAse-free water. Reverse transcription for quantitative RT-PCR was carried out with the Omniscript Kit (Qiagen, 205113) in RNAse-free 96-well round-bottom plates. Per well, 6.8 μl of a reaction master mix containing 2 μl 10×RT-buffer, 2 μl dNTPs (5 mM each), 1.6 μl random primer N6 (125 μM), 0.25 μl Rnase Out (40 U/μl) and 1 μl Omniscript Reverse Transcriptase were added. After addition of 13.2 μl of the RNA/water mixture, plate contents were mixed, incubated for 1 h at 37° C. and the total volume adjusted to 100 μl in each well by addition of 80 μl RNAse-free water.
The quantification of human Smad7 mRNA was carried out on a TaqMan using the Eurogentec qPCR Mastermix Plus (RT-QP2X-03-075+; Cologne, Germany) and employing human L32 as housekeeping reference mRNA. Per qPCR reaction, 2.8 μl primer mix, 10 μl master mix, 2.2 μl water and 5 μl cDNA were added. Thermal cycling parameters were 2 min at 50° C., followed by 10 min at 95° C., followed by 40 cycles of melting at 95° C. for 15 sec and annealing/extending at 60° C. for 1 min.
Smad7 mRNA levels induced by 1 ng/ml BMP9 without the addition of any inhibitor were set at 100% induction, and % inhibition was calculated for each test compound with this value. For each test compound, every value was determined in quadruplicate. The IC50 values were determined using Microsoft Excel. The fitting method used was a weighted, unconstrained ML-fit.

SMILES	IC50 [1]	IC50 [2]
Nc1ncnn2c(CCCO)cc(-c3ccc(CO)cc3)c12 [Example 3, 3-{4-Amino-5-[4-(hydroxymethyl)phenyl]pyrrolo[2,1-f][1,2,4]triazin-7-yl}propan-1-ol]	0.18 µM	0.12 µM
Nc1ncnn2c(C(O)C3CC3)cc(-c3cc(F)c(CO)c(F)c3)c12 (centres unmarked) [Example 5, {4-Amino-5-[3,5-difluoro-4-(hydroxymethyl)phenyl]pyrrolo[2,1-f][1,2,4]triazin-7-yl}(cyclopropyl)methanol]	0.15 µM	0.29 µM
Nc1ncnn2c1c(-c1cc(F)c(CO)c(F)c1)cc2[C@H]1CC[C@H](O)CC1 [Example 7, trans-4-[4-Amino-5-[3,5-difluoro-4-(hydroxymethyl)phenyl]pyrrolo[2,1-f][1,2,4]triazin-7-yl]-cyclohexanol]	0.13 µM	0.14 µM
Nc1ncnn2c(CN3CCOCC3)cc(-c3cc(F)c(CO)c(F)c3)c12 [Example 20, {4-[4-Amino-7-(morpholin-4-ylmethyl)pyrrolo[2,1-f][1,2,4]triazin-5-yl]-2,6-difluorophenyl}-methanol]	4.4 µM	5.9 µM
Nc1ncnn2c(CN3CCOCC3)cc(-c3ccc(CO)c(F)c3)c12 [Example 21, {4-[4-Amino-7-(morpholin-4-ylmethyl)pyrrolo[2,1-f][1,2,4]triazin-5-yl]-2-fluorophenyl}methanol]	6 µM	0.79 µM
Nc1ncnn2c(CN3CCOCC3)cc(-c3ccc(CO)c(Cl)c3)c12 [Example 22, {4-[4-Amino-7-(morpholin-4-ylmethyl)pyrrolo[2,1-f][1,2,4]triazin-5-yl]-2-chlorophenyl}methanol]	0.8 µM	3.1 µM

Stronger by IC50 [1], values ahead:

IC50 [1]	SMILES	IC50 [2]
0.125 µM	CCCc1cc(-c2cc(F)c(CO)c(F)c2)c2c(N)ncnn12 [Example 2, [4-(4-Amino-7-propylpyrrolo[2,1-f][1,2,4]triazin-5-yl)-2,6-difluorophenyl]methanol]	0.16 µM
0.12 µM	Nc1nc(-c2cc(-c3ccc(CO)cc3)c3c(N)ncnn23)cs1 [Example 17, {4-[4-Amino-7-(2-amino-1,3-thiazol-4-yl)pyrrolo[2,1-f][1,2,4]triazin-5-yl]phenyl}methanol]	0.29 µM
0.1 µM	CCCc1cc(-c2ccc(CO)cc2)c2c(N)ncnn12 [Example 1, [4-(4-Amino-7-propylpyrrolo[2,1-f][1,2,4]triazin-5-yl)phenyl]methanol]	0.094 µM
0.09 µM	Nc1ncnn2c([C@@H]3CCCNC3)cc(-c3cc(F)c(CO)c(F)c3)c12 [Example 11, (4-{4-Amino-7-[(3R)-piperidin-3-yl]pyrrolo[2,1-f][1,2,4]triazin-5-yl}-2,6-difluorophenyl)methanol]	0.18 µM
